# Non-standard residues stand in square brackets, D forms with d. Residues, ends and D or L forms follow the SMILES beside them. *: point of attachment. Palmitoyl = CCCCCCCCCCCCCCCC(=O)*
# Experiments:
# [1] = chemical penetration enhancers, cited from earlier work; for Solubility: solvent and source not given; for LogP: source not given
# [2] = In vitro skin permeation testing, Franz type diffusion cells; type: in vitro ADME; settings: 5% (w/v) in PG, human epidermis, Franz cell, 32 °C, 24 h
# [3] = Peptide human skin retention after 24 h; type: in vitro ADME
# melanin = settings: 16 weeks of twice daily treatment; reference not given; cited from earlier work
# mushroom tyrosinase = settings: cited from earlier work
# human tyrosinase = settings: cited from earlier work
compound,measurement,setting,value
CC12CCC(CC1=O)C2(C)C (centres unmarked) [Camphor],Solubility,[1],1.1 mg/mL
same,LogP,[1],2.1 ± 0.3
CC1CCC(C(C)C)C(O)C1 (centres unmarked) [Menthol],Solubility,[1],1.5 mg/mL
same,LogP,[1],3.2 ± 0.2
CCCCCCCC/C=C\CCCCCCCC(=O)O [Oleic acid],Solubility,[1],0.002 mg/mL
same,LogP,[1],7.4 ± 0.2
CCCCCCCCCCCCCCCC(=O)N[C@@H](Cc1ccc(O)cc1)C(=O)N[C@@H](CCCNC(=N)N)C(=O)N[C@@H](CO)C(=O)N[C@@H](CCCNC(=N)N)C(=O)N[C@@H](CCCCN)C(=O)N[C@H](Cc1ccc(O)cc1)C(=O)N[C@@H](CO)C(=O)N[C@@H](CO)C(=O)N[C@@H](Cc1c[nH]c2ccccc12)C(=O)N[C@@H](Cc1ccc(O)cc1)C(N)=O [Palm-peptide] (Palmitoyl-YRSRK[dY]SSWY-NH2),Effect of CPE on skin permeation,[2]; menthol,enhancing effect
same,Effect of CPE on skin permeation,[2]; oleic acid,inhibitory effects
same,Percentage of peptide retained inside skin (dose-normalised),"[3]; MN patch, human epidermis, 24 h",< 0.1%
same,Highest peptide concentration in skin,[3]; estimated from skin retention after 24 h,9.0 µg/g
"YRSRKYSSWY [Native peptide, decapeptide-12]",Skin retention of peptide after 24 h,"[3]; MN patch, human epidermis, Franz cell, 32 °C, 24 h, HPLC-UV 280 nm, triplicates",No peptides were detected
same,Efficacy in reducing content of melanin,melanin,more than 50%
same,Competitive inhibition compared with hydroquinone,mushroom tyrosinase,stronger competitive inhibition effect
same,Competitive inhibition compared with hydroquinone,human tyrosinase,stronger competitive inhibition effect

# From article doi:10.1101/2020.10.07.312850v1 (bioRxiv, 2020)
